According to US20250222146A1, “Radiopharmaceuticals Targeting Somatostatin Receptor 2 and Uses Thereof” (RayzeBio, Inc., priority 2023, published 2025):
Numbered stars: 1 amine (or outer) side, 2 acyl side, 3 side chain; on linkers, the order of the positions; unused ones are H or OH. Square brackets hold non-standard residues; d marks the D form. Side chains are listed from the residue outwards. Peptide text beside a SMILES is read from it. * marks the point of attachment. ξ: configuration not given here. DOTA(Lu)NH(CH2)6NHCOCH2 = O=C(CN1CCN2CCN3CCN(CC1)CC(=O)[O][Lu]([O]C(=O)C2)[O]C(=O)C3)NCCCCCCNC(=O)C*; X12 = O=C1CN2CCN3CCN(CC(=O)N4CCC(CC(=O)*)CC4)CCN(CC2)CC(=O)[O][Lu]([O]1)[O]C(=O)C3; X9 = O=C1CN2CCN3CCN(CC(=O)N4CC(C(=O)*)C4)CCN(CC2)CC(=O)[O][Lu]([O]1)[O]C(=O)C3; DOTA(Lu) = O=C1CN2CCN3CCN(CC(=O)*)CCN(CC2)CC(=O)[O][Lu]([O]1)[O]C(=O)C3; Ala(piperidin-4-yl) = O=C([C@H](CC1CCN([*:3])CC1)N[*:1])[*:2]; DOTA = O=C(O)CN1CCN(CC(=O)O)CCN(CC(=O)*)CCN(CC(=O)O)CC1; dTrp(βS-Me) = C[C@@H](c1c[nH]c2ccccc12)[C@@H](N)C(=O)O; N(6-aminohexyl)Gly = O=C(CN(CCCCCCN[*:3])[*:1])[*:2]; Ala(piperazin-1-yl) = N[C@@H](CN1CCNCC1)C(=O)O; Tyr(Ph) = N[C@@H](Cc1ccc(Oc2ccccc2)cc1)C(=O)O; NOTA = O=C(O)CN1CCN(CC(=O)O)CCN(CC(=O)*)CC1; X16 = NC1CCC(C[C@H](N[*:1])C(=O)[*:2])CC1; Dip = N[C@H](C(=O)O)C(c1ccccc1)c1ccccc1; Lys(5ξ-OH) = NCC(O)CC[C@H](N)C(=O)O; Ethylenediamine = C(CN[*:2])N[*:1]; Hyp = O=C(O)[C@@H]1C[C@@H](O)CN1; NMehLys = CN[C@@H](CCCCCN)C(=O)O; Trx = NC[C@H]1CC[C@H](C(=O)O)CC1; dPhg = N[C@@H](C(=O)O)c1ccccc1; NMehCys = CN[C@@H](CCS)C(=O)O; NMeK = CN[C@@H](CCCCN)C(=O)O; CO = O=C([*:1])[*:2]; Inp = O=C(O)C1CCNCC1; Ava = NCCCCC(=O)O; Bn = c1ccc(C*)cc1; GABA = NCCCC(=O)O; βAla = NCCC(=O)O

target: SSTR2 (Homo sapiens, UniProt P30874); assay: SSTR binding affinity by radioligand binding competition assay ([125I]-Tyr11-Somatostatin, membrane extracts); conditions: radioligand competition, [125I]-Tyr11-Somatostatin 0.1 nM, membrane extracts; Ki from IC50 by Cheng Prusoff; read-out: SSTR2 Ki
Sequence (P30874 whole entry): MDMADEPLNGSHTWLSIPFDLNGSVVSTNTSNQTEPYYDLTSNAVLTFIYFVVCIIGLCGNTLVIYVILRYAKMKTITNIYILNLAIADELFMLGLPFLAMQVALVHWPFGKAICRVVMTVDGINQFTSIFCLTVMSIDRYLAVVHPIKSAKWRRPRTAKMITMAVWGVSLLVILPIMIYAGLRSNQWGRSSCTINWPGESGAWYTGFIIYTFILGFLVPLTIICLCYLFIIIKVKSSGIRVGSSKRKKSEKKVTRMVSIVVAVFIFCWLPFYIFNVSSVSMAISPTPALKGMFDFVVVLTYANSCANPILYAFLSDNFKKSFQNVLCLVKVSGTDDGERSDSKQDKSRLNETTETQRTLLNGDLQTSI

SMILES	Ki
C[C@@H](O)[C@@H]1NC(=O)[C@H](CC2CCNCC2)NC(=O)[C@@H]([C@@H](C)c2c[nH]c3ccccc23)NC(=O)[C@H](Cc2ccc(Oc3ccccc3)cc2)NC(=O)[C@H](CCCCNC(=O)CN2CCN3CCN4CCN(CC2)CC(=O)[O][Lu]([O]C(=O)C3)[O]C(=O)C4)N(C)C(=O)[C@H](Cc2ccccc2)NC1=O [RB-0006237] (cyclo(F[NMeK](DOTA(Lu))[Tyr(Ph)][dTrp(βS-Me)][Ala(piperidin-4-yl)]T))	3.33 to 10 nM
C[C@@H](O)[C@@H]1NC(=O)[C@H](CC2CCNCC2)NC(=O)[C@@H]([C@@H](C)c2c[nH]c3ccccc23)NC(=O)[C@H](C(c2ccccc2)c2ccccc2)NC(=O)[C@H](CCCCNC(=O)CN2CCN3CCN4CCN(CC2)CC(=O)[O][Lu]([O]C(=O)C3)[O]C(=O)C4)N(C)C(=O)[C@H](Cc2ccccc2)NC1=O [RB-0006239] (cyclo([Dip][dTrp(βS-Me)][Ala(piperidin-4-yl)]TF[NMeK](DOTA(Lu))))	10 to 33.3 nM
C[C@@H](O)[C@@H]1NC(=O)[C@H](CC2CCNCC2)NC(=O)[C@@H]([C@@H](C)c2c[nH]c3ccccc23)NC(=O)[C@H](Cc2ccc(O)cc2)NC(=O)[C@H](CCCCNC(=O)CN2CCN(CC(=O)O)CCN(CC(=O)O)CC2)N(C)C(=O)[C@H](Cc2ccccc2)NC1=O [RB-0006286] (cyclo([NMeK](NOTA)Y[dTrp(βS-Me)][Ala(piperidin-4-yl)]TF))	1 to 3.33 nM
C[C@@H](O)[C@@H]1NC(=O)[C@H](CCC(O)CN)NC(=O)[C@@H](Cc2c[nH]c3ccccc23)NC(=O)[C@H](Cc2ccc(O)cc2)NC(=O)[C@H](CCSCC(=O)NCCCCCCNC(=O)CN2CCN3CCN4CCN(CC2)CC(=O)[O][Lu]([O]C(=O)C3)[O]C(=O)C4)N(C)C(=O)[C@H](Cc2ccccc2)NC1=O (stereo partly drawn) [RB-0006317] (cyclo(F[NMehCys](DOTA(Lu)NH(CH2)6NHCOCH2)Y[dW][Lys(5ξ-OH)]T))	< 1 nM
C[C@@H]1NC(=O)[C@H](CC2CCNCC2)NC(=O)[C@@H]([C@@H](C)c2c[nH]c3ccccc23)NC(=O)[C@H](Cc2ccc(O)cc2)NC(=O)[C@H](CCCCNC(=O)CN2CCN3CCN4CCN(CC2)CC(=O)[O][Lu]([O]C(=O)C3)[O]C(=O)C4)N(C)C(=O)[C@H](Cc2ccccc2)NC1=O [RB-0006319] (cyclo(AF[NMeK](DOTA(Lu))Y[dTrp(βS-Me)][Ala(piperidin-4-yl)]))	< 1 nM
C[C@@H](O)[C@@H]1NC(=O)[C@H](CCC(O)CN)NC(=O)[C@H](Cc2c[nH]c3ccccc23)NC(=O)[C@H](Cc2ccc(O)cc2)NC(=O)[C@H](CCSCC(=O)NCCCCCCNC(=O)CN2CCN3CCN4CCN(CC2)CC(=O)[O][Lu]([O]C(=O)C3)[O]C(=O)C4)N(C)C(=O)[C@H](Cc2ccccc2)NC1=O (stereo partly drawn) [RB-0006385] (cyclo(F[NMehCys](DOTA(Lu)NH(CH2)6NHCOCH2)YW[Lys(5ξ-OH)]T))	< 1 nM
C[C@@H](O)[C@@H]1NC(=O)[C@H](CC2CCC(N)CC2)NC(=O)[C@@H]([C@@H](C)c2c[nH]c3ccccc23)NC(=O)[C@H](Cc2ccc(O)cc2)NC(=O)[C@H](CCCCNC(=O)CN2CCN3CCN4CCN(CC2)CC(=O)[O][Lu]([O]C(=O)C3)[O]C(=O)C4)N(C)C(=O)[C@H](Cc2ccccc2)NC1=O (stereo partly drawn) [RB-0006387] (cyclo(F[NMeK](DOTA(Lu))Y[dTrp(βS-Me)][X16]T))	< 1 nM
C[C@@H](O)[C@@H]1NC(=O)[C@H](CC2CCNCC2)NC(=O)[C@@H]([C@@H](C)c2c[nH]c3ccccc23)NC(=O)[C@H](Cc2ccc(O)cc2)NC(=O)CN(CCCCCCNC(=O)CN2CCN3CCN4CCN(CC2)CC(=O)[O][Lu]([O]C(=O)C3)[O]C(=O)C4)C(=O)[C@H](Cc2ccccc2)NC1=O [RB-0006389] (cyclo(F[N(6-aminohexyl)Gly](DOTA(Lu))Y[dTrp(βS-Me)][Ala(piperidin-4-yl)]T))	< 1 nM
C[C@@H](O)[C@@H]1NC(=O)[C@H](CC2CCNCC2)NC(=O)[C@@H]([C@@H](C)c2c[nH]c3ccccc23)NC(=O)[C@H](Cc2ccc(O)cc2)NC(=O)[C@@H]2C[C@@H](OC(=O)NCCNC(=O)CN3CCN4CCN5CCN(CC3)CC(=O)[O][Lu]([O]C(=O)C4)[O]C(=O)C5)CN2C(=O)[C@H](Cc2ccccc2)NC1=O [RB-0006395] (cyclo(F[Hyp]([CO-Ethylenediamine-DOTA(Lu)])Y[dTrp(βS-Me)][Ala(piperidin-4-yl)]T))	< 1 nM
C[C@@H](O)[C@@H]1NC(=O)[C@H](CC2CCNCC2)NC(=O)[C@@H]([C@@H](C)c2c[nH]c3ccccc23)NC(=O)[C@H](Cc2ccc(O)cc2)NC(=O)[C@H](CCCCNC(=O)CNC(=O)CN2CCN3CCN4CCN(CC2)CC(=O)[O][Lu]([O]C(=O)C3)[O]C(=O)C4)N(C)C(=O)[C@H](Cc2ccccc2)NC1=O [RB-0006397] (cyclo(F[NMeK]([Gly-DOTA(Lu)])Y[dTrp(βS-Me)][Ala(piperidin-4-yl)]T))	1 to 3.33 nM
C[C@@H](O)[C@@H]1NC(=O)[C@H](CC2CCNCC2)NC(=O)[C@@H]([C@@H](C)c2c[nH]c3ccccc23)NC(=O)[C@H](Cc2ccc(O)cc2)NC(=O)[C@H](CCCCNC(=O)CCNC(=O)CN2CCN3CCN4CCN(CC2)CC(=O)[O][Lu]([O]C(=O)C3)[O]C(=O)C4)N(C)C(=O)[C@H](Cc2ccccc2)NC1=O [RB-0006400] (cyclo(F[NMeK]([βAla-DOTA(Lu)])Y[dTrp(βS-Me)][Ala(piperidin-4-yl)]T))	1 to 3.33 nM
C[C@@H](O)[C@@H]1NC(=O)[C@H](CC2CCNCC2)NC(=O)[C@@H]([C@@H](C)c2c[nH]c3ccccc23)NC(=O)[C@H](Cc2ccc(O)cc2)NC(=O)[C@H](CCCCNC(=O)CCCNC(=O)CN2CCN3CCN4CCN(CC2)CC(=O)[O][Lu]([O]C(=O)C3)[O]C(=O)C4)N(C)C(=O)[C@H](Cc2ccccc2)NC1=O [RB-0006403] (cyclo(F[NMeK]([GABA-DOTA(Lu)])Y[dTrp(βS-Me)][Ala(piperidin-4-yl)]T))	1 to 3.33 nM
C[C@@H](O)[C@@H]1NC(=O)[C@H](CC2CCNCC2)NC(=O)[C@@H]([C@@H](C)c2c[nH]c3ccccc23)NC(=O)[C@H](Cc2ccc(O)cc2)NC(=O)[C@H](CCCCNC(=O)CCCCNC(=O)CN2CCN3CCN4CCN(CC2)CC(=O)[O][Lu]([O]C(=O)C3)[O]C(=O)C4)N(C)C(=O)[C@H](Cc2ccccc2)NC1=O [RB-0006406] (cyclo(F[NMeK]([Ava-DOTA(Lu)])Y[dTrp(βS-Me)][Ala(piperidin-4-yl)]T))	1 to 3.33 nM
C[C@@H](O)[C@@H]1NC(=O)[C@H](CN2CCNCC2)NC(=O)[C@@H]([C@@H](C)c2c[nH]c3ccccc23)NC(=O)[C@H](Cc2ccc(O)cc2)NC(=O)[C@H](CCCCNC(=O)CC[C@@H]2C(=O)[O][Ga]3[O]C(=O)CN4CCN(CCN2CC4)CC(=O)[O]3)N(C)C(=O)[C@H](Cc2ccccc2)NC1=O [RB-0006414]	1 to 3.33 nM
C[C@@H](O)[C@@H]1NC(=O)[C@H](CN2CCNCC2)NC(=O)[C@@H]([C@@H](C)c2c[nH]c3ccccc23)NC(=O)[C@H](Cc2ccc(O)cc2)NC(=O)[C@H](CCCCNC(=O)[C@H]2CC[C@H](CNC(=O)CN3CCN4CCN5CCN(CC3)CC(=O)[O][Lu]([O]C(=O)C4)[O]C(=O)C5)CC2)N(C)C(=O)[C@H](Cc2ccccc2)NC1=O [RB-0006420] (cyclo(F[NMeK]([Trx-DOTA(Lu)])Y[dTrp(βS-Me)][Ala(piperazin-1-yl)]T))	1 to 3.33 nM
C[C@@H](O)[C@@H]1NC(=O)[C@H](CC2CCNCC2)NC(=O)[C@@H]([C@@H](C)c2c[nH]c3ccccc23)NC(=O)[C@H](Cc2ccc(O)cc2)NC(=O)[C@H](CCCCCNC(=O)CN2CCN3CCN4CCN(CC2)CC(=O)[O][Lu]([O]C(=O)C3)[O]C(=O)C4)N(C)C(=O)[C@H](Cc2ccccc2)NC1=O [RB-0006449] (cyclo(F[NMehLys](DOTA(Lu))Y[dTrp(βS-Me)][Ala(piperidin-4-yl)]T))	< 1 nM
C[C@@H](O)[C@@H]1NC(=O)[C@H](CC2CCNCC2)NC(=O)[C@@H]([C@@H](C)c2c[nH]c3ccccc23)NC(=O)[C@H](Cc2ccc(O)cc2)NC(=O)[C@H](CCCCNC(=O)C2CCN(C(=O)CN3CCN4CCN5CCN(CC3)CC(=O)[O][Lu]([O]C(=O)C5)[O]C(=O)C4)CC2)N(C)C(=O)[C@H](Cc2ccccc2)NC1=O [RB-0006452] (cyclo(F[NMeK]([Inp-DOTA(Lu)])Y[dTrp(βS-Me)][Ala(piperidin-4-yl)]T))	1 to 3.33 nM
C[C@@H](O)[C@@H]1NC(=O)[C@H](CC2CCNCC2)NC(=O)[C@@H]([C@@H](C)c2c[nH]c3ccccc23)NC(=O)[C@H](Cc2ccc(O)cc2)NC(=O)[C@H](CCCCNC(=O)C2CN(C(=O)CN3CCN4CCN5CCN(CC3)CC(=O)[O][Lu]([O]C(=O)C5)[O]C(=O)C4)C2)N(C)C(=O)[C@H](Cc2ccccc2)NC1=O [RB-0006455] (cyclo(F[NMeK](X9)Y[dTrp(βS-Me)][Ala(piperidin-4-yl)]T))	1 to 3.33 nM
C[C@@H](O)[C@@H]1NC(=O)[C@H](CC2CCNCC2)NC(=O)[C@@H]([C@@H](C)c2c[nH]c3ccccc23)NC(=O)[C@H](Cc2ccc(O)cc2)NC(=O)[C@H](CCCCNC(=O)CC2CCN(C(=O)CN3CCN4CCN5CCN(CC3)CC(=O)[O][Lu]([O]C(=O)C5)[O]C(=O)C4)CC2)N(C)C(=O)[C@H](Cc2ccccc2)NC1=O [RB-0006458] (cyclo(F[NMeK](X12)Y[dTrp(βS-Me)][Ala(piperidin-4-yl)]T))	3.33 to 10 nM

same assay, conditions: read-out: SSTR2 Ki; radioligand competition, [125I]-Tyr11-Somatostatin 0.1 nM, membrane extracts; Ki from IC50 by Cheng Prusoff

SMILES	Ki
C[C@@H](c1c[nH]c2ccccc12)[C@H]1NC(=O)[C@@H](c2ccccc2)NC(=O)[C@@H]2C[C@@H](OC(=O)NCCNC(=O)CN3CCN(CC(=O)O)CCN(CC(=O)O)CCN(CC(=O)O)CC3)CN2C(=O)[C@H](Cc2ccccc2)NC(=O)[C@H](Cc2ccc(OCc3ccccc3)cc2)NC(=O)[C@H](CC2CCNCC2)NC1=O [RB-0006391] (cyclo(F[Hyp]([CO-Ethylenediamine-DOTA])[dPhg][dTrp(βS-Me)][Ala(piperidin-4-yl)]Y(Bn)))	33.3 to 100 nM
C[C@@H](c1c[nH]c2ccccc12)[C@H]1NC(=O)[C@H](Cc2ccc(O)cc2)NC(=O)[C@@H]2C[C@@H](OC(=O)NCCNC(=O)CN3CCN(CC(=O)O)CCN(CC(=O)O)CCN(CC(=O)O)CC3)CN2C(=O)[C@H](Cc2ccccc2)NC(=O)[C@H](Cc2ccc(OCc3ccccc3)cc2)NC(=O)[C@H](CC2CCNCC2)NC1=O [RB-0006393] (cyclo(F[Hyp]([CO-Ethylenediamine-DOTA])Y[dTrp(βS-Me)][Ala(piperidin-4-yl)]Y(Bn)))	< 1 nM
